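Briefly, cells in 96-well plates were exposed to five compound concentrations for 48 h, and endpoints were estimated by linear interpolation. GI50 = concentration required for 50% inhibition of growth.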 Active and inactive are the calls of the source. Cut-off read from the data, not from the text of the source: active = GI50 up to about 1.1 µM and inactive = higher.

Test systems include K562; SNB-19; OVCAR-8; UACC-257; RPMI-8226; BT-549; OVCAR-4; CAKI-1; SF-539; OVCAR-3; 786-0; OVCAR-5; HOP-92; EKVX; ACHN; HOP-62; HL-60; HCT-116; NCI-H226; MDA-MB-435.
What all share (experiment): DTP human tumour cell line panel, 48 h

On to `CCOP(=O)(OCC)C(F)(F)Cc1cnc(C)c2c1COC(C)(C)O2`, for which the GI50 in the test on K562, in the test on SNB-19, in the test with OVCAR-8, with UACC-257, in the test on RPMI-8226 and in the test with BT-549 was > 10 µM (inactive) throughout. In addition, the GI50 with OVCAR-4, with CAKI-1, in the test with SF-539, in the test on OVCAR-3, with 786-0 and in the test on OVCAR-5 was > 10 µM (inactive) throughout. The GI50 in the test with HOP-92, in the test on EKVX, in the test on ACHN, in the test on HOP-62, in the test on HL-60 and in the test with HCT-116 was > 10 µM (inactive) each time. Moreover, the GI50 in the test on NCI-H226 and in the test on MDA-MB-435 was > 10 µM (inactive) each time.

As for `CC(C)(C)NNc1c([N+](=O)[O-])cnn(-c2ccccc2)c1=O`, the GI50 in the test on K562 was 0.942 µM (active); with SNB-19 it was 11.2 µM (inactive); in the test on OVCAR-8, 2.26 µM (inactive); in the test with UACC-257 it was 4.6 µM (inactive); in the test on RPMI-8226 it was 3.96 µM (inactive); in the test with BT-549, 1.41 µM (inactive). The GI50 is 3.59 µM (inactive) in the test with OVCAR-4; 8.69 µM (inactive) with CAKI-1; 13.2 µM (inactive) in the test with SF-539; 2.59 µM (inactive) with OVCAR-3; 6.24 µM (inactive) in the test with 786-0; 8.81 µM (inactive) in the test with OVCAR-5. Moreover, the GI50 with HOP-92 is 6.5 µM (inactive); with EKVX it was 9.14 µM (inactive); in the test on ACHN it was 8.71 µM (inactive); in the test on HOP-62, 8.63 µM (inactive); in the test on HL-60, 1.34 µM (inactive); in the test on HCT-116, 2.46 µM (inactive). Moreover, the GI50 in the test with NCI-H226 is 7.96 µM (inactive); in the test on MDA-MB-435, 1.81 µM (inactive).

For the compound `CCOP(=O)(OCC)C(C#N)Cc1ccco1` (stereo not given), the GI50 in the test with K562, in the test on SNB-19, in the test on OVCAR-8, with UACC-257, with RPMI-8226 and in the test with BT-549 was > 10 µM (inactive) throughout. Besides, the GI50 with OVCAR-4, in the test on CAKI-1, with SF-539, in the test on OVCAR-3, in the test with 786-0 and in the test on OVCAR-5 was > 10 µM (inactive) throughout. Besides, the GI50 in the test with HOP-92, in the test on EKVX, in the test on ACHN, in the test on HOP-62, with HL-60 and in the test on HCT-116 was > 10 µM (inactive) each time. Also, the GI50 in the test with NCI-H226 and with MDA-MB-435 was > 10 µM (inactive) in each case.

Consider `O=P(NC12CC3CC(CC(C3)C1)C2)(N1CC1)N1CC1`, for which the GI50 with K562 was 37.6 µM (inactive); with SNB-19 it was 17.1 µM (inactive); with OVCAR-8, 43 µM (inactive); in the test with UACC-257, > 100 µM (inactive); in the test on RPMI-8226, > 66.1 µM (inactive); in the test with BT-549, > 100 µM (inactive). Moreover, the GI50 is > 100 µM (inactive) in the test with OVCAR-4; 1.82 µM (inactive) in the test with CAKI-1; 15.9 µM (inactive) with SF-539; > 86.1 µM (inactive) in the test on OVCAR-3; 23.2 µM (inactive) with 786-0; > 100 µM (inactive) in the test with OVCAR-5. Besides, the GI50 in the test on HOP-92 was 18.5 µM (inactive); in the test with EKVX it was > 100 µM (inactive); in the test with ACHN it was 4.67 µM (inactive); with HOP-62, 12.8 µM (inactive); with HL-60, 3.09 µM (inactive); in the test with HCT-116, 43.7 µM (inactive). Further, the GI50 in the test with NCI-H226 is 41.6 µM (inactive); in the test on MDA-MB-435 it was > 100 µM (inactive).

For the compound `Nc1nc2c(c(-c3ccccc3Cl)n1)COC/C2=C\c1ccccc1Cl`, the GI50 is 12.2 µM (inactive) in the test on K562; 15.7 µM (inactive) in the test on SNB-19; 16 µM (inactive) in the test on OVCAR-8; 18.7 µM (inactive) with UACC-257; 10.6 µM (inactive) in the test with RPMI-8226; 16 µM (inactive) with BT-549. Also, the GI50 in the test with OVCAR-4 was 19.7 µM (inactive); with CAKI-1, 16.3 µM (inactive); in the test with SF-539 it was 18.2 µM (inactive); in the test with OVCAR-3 it was 17.4 µM (inactive); in the test with 786-0, 17.2 µM (inactive); in the test on OVCAR-5, 17.2 µM (inactive). In addition, the GI50 was 14.8 µM (inactive) in the test on HOP-92; 18.3 µM (inactive) in the test with EKVX; 17.9 µM (inactive) in the test on ACHN; 18.1 µM (inactive) in the test on HOP-62; 3.08 µM (inactive) with HL-60; 15.8 µM (inactive) in the test with HCT-116. Also, the GI50 in the test on NCI-H226 is 18.8 µM (inactive); with MDA-MB-435, 10.3 µM (inactive).

Consider `CC1=C(/C=C/C(=O)O)C(C)(C)CCC1`, for which the GI50 with K562, with SNB-19, with OVCAR-8, with UACC-257, with RPMI-8226 and in the test on BT-549 was > 100 µM (inactive) in each case. In addition, the GI50 in the test on OVCAR-4, in the test with CAKI-1, with SF-539, in the test on OVCAR-3, in the test with 786-0 and with OVCAR-5 was > 100 µM (inactive) throughout. Besides, the GI50 in the test with HOP-92, in the test with EKVX, in the test with ACHN, in the test with HOP-62, with HL-60 and with HCT-116 was > 100 µM (inactive) each time. Also, the GI50 in the test with NCI-H226 and in the test with MDA-MB-435 was > 100 µM (inactive) throughout.

As to `NC(Cc1ccccc1)c1nn[nH]n1` (stereo not given), the GI50 is 0.0476 µM (active) in the test with K562; > 100 µM (inactive) in the test on SNB-19; > 100 µM (inactive) with OVCAR-8; > 100 µM (inactive) with UACC-257; > 100 µM (inactive) in the test with RPMI-8226; > 100 µM (inactive) with BT-549. Moreover, the GI50 with OVCAR-4, in the test with CAKI-1, with SF-539, in the test on OVCAR-3, in the test on 786-0 and with OVCAR-5 was > 100 µM (inactive) each time. Also, the GI50 in the test with HOP-92, in the test on EKVX, in the test with ACHN, in the test with HOP-62, with HL-60 and with HCT-116 was > 100 µM (inactive) in each case. In addition, the GI50 in the test on NCI-H226 and in the test with MDA-MB-435 was > 100 µM (inactive) in each case.

As to `Cc1nc(-n2nc(-c3ccccc3)cc2-c2ccccc2)sc1C(=O)/C=C/c1ccc([N+](=O)[O-])cc1`, the GI50 in the test on K562 is 14.2 µM (inactive); with SNB-19, 24.2 µM (inactive); in the test with OVCAR-8 it was 17.7 µM (inactive); with UACC-257 it was 34.5 µM (inactive); with RPMI-8226, 10.5 µM (inactive); with BT-549, 13.2 µM (inactive). The GI50 was 34.1 µM (inactive) in the test on OVCAR-4; 24.9 µM (inactive) with CAKI-1; 11.2 µM (inactive) with SF-539; 10.4 µM (inactive) with OVCAR-3; 13 µM (inactive) with 786-0; > 59.4 µM (inactive) in the test with OVCAR-5. Also, the GI50 was > 56.5 µM (inactive) in the test with HOP-92; > 43 µM (inactive) in the test with EKVX; 26.5 µM (inactive) in the test with ACHN; 20.1 µM (inactive) with HOP-62; 17.2 µM (inactive) in the test with HL-60; 12.7 µM (inactive) in the test on HCT-116. Further, the GI50 in the test on NCI-H226 was 57.8 µM (inactive); in the test on MDA-MB-435, 16 µM (inactive).

With `COc1cc(OC)c(C2(c3c(OC(C)C)c(=O)c3=O)SCCCS2)cc1OC`, the GI50 in the test with K562, with SNB-19, in the test on OVCAR-8, in the test on UACC-257, with RPMI-8226 and in the test with BT-549 was > 100 µM (inactive) in each case. Moreover, the GI50 with OVCAR-4, with CAKI-1, in the test on SF-539, with OVCAR-3, in the test with 786-0 and in the test on OVCAR-5 was > 100 µM (inactive) in each case. In addition, the GI50 in the test with HOP-92, in the test with EKVX, in the test on ACHN, in the test with HOP-62, with HL-60 and in the test on HCT-116 was > 100 µM (inactive) each time. In addition, the GI50 in the test with NCI-H226 and in the test on MDA-MB-435 was > 100 µM (inactive) in each case.

For `CC(C)SC(=S)Sc1c(Cl)c(Cl)nc(Cl)c1Cl`, the GI50 in the test on K562 is 2.97 µM (inactive); in the test on SNB-19 it was 7.55 µM (inactive); with OVCAR-8 it was 3.46 µM (inactive); in the test on UACC-257, 3.52 µM (inactive); in the test on RPMI-8226, 1.75 µM (inactive); with BT-549 it was 15.3 µM (inactive). For the same compound, the GI50 is 13.6 µM (inactive) with OVCAR-4; 2.84 µM (inactive) in the test on CAKI-1; 10.9 µM (inactive) in the test with SF-539; 1.85 µM (inactive) in the test with OVCAR-3; 2.33 µM (inactive) in the test on 786-0; 16.3 µM (inactive) in the test with OVCAR-5. For the same compound, the GI50 in the test on HOP-92 was 7.69 µM (inactive); in the test with EKVX it was 8.22 µM (inactive); with ACHN it was 6.98 µM (inactive); in the test on HOP-62, 5.85 µM (inactive); in the test with HL-60, 2.44 µM (inactive); in the test on HCT-116 it was 10.5 µM (inactive). Besides, the GI50 with NCI-H226 was 24.9 µM (inactive); in the test on MDA-MB-435 it was 7.38 µM (inactive).

As a reminder, the GI50 is the concentration giving 50% growth inhibition.

The values are drawn from ChEMBL document CHEMBL1201862, “PubChem BioAssay data set” (2004).
